According to patent US20250262315A1 (priority 2021, published 2025):

What was measured:
[1] = tested on: Human neutrophil elastase; experiment: human neutrophil elastase in tris-buffered saline (TBS, pH 7.4); conditions: 37° C., up to 24 h
[2] = target: T1, human neutrophil elastase (Homo sapiens, UniProt P08246); experiment: Human neutrophil protease-mediated cleavage assay using pyrene probes: neutrophil elastase; format: biochemical; conditions: 37° C.; for stability against human neutrophil elastase-mediated degradation (in words): pyrene probes; for stability against degradation mediated by neutrophil elastase or mouse plasma (in words): additional probes; for % intact probe, Neutrophil elastase: after incubation for 24 h, n = 2, mean ± SEM
T1 construct: purchased MilliporeSigma
T1 sequence (P08246 30-267): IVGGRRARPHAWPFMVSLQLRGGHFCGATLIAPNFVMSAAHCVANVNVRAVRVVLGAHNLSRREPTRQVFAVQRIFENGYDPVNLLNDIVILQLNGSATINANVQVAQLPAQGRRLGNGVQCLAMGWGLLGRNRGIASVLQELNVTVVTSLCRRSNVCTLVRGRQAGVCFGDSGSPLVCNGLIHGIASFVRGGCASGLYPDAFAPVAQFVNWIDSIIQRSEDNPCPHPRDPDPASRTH
Procedure: (§1) Human neutrophil protease-mediated cleavage assay using pyrene probes. Each test compound (10 mM in DMSO, 2 μL) was mixed with 97 μL of tris-buffered saline (TBS, pH 7.4) and 1 μL of 1-pyrenemethylamine (10 mM in DMSO, internal standard). The mixture was incubated at 37° C. for 10 min. Human neutrophil elastase (40 ng μL^−1, 20 μL in TBS, MilliporeSigma), human proteinase 3 (250 ng μL^−1, 5 μL in TBS, MilliporeSigma) or human cathepsin G (330 ng μL^−1, 5 μL in TBS, MilliporeSigma) was added to the test compound mixture in 1:1 volume ratio, followed by incubation at 37° C. Aliquots (5 μL) were collected at each time point (0, 1, 3, 6, and 24 h for elastase; 0 and 24 h for proteinase 3 and cathepsin G). Cold acetonitrile containing 1% formic acid (25 μL) was added to precipitate proteins. The mixture was then kept at −20° C. for 30 min. Precipitated proteins were pelleted by centrifugation (15,000×g, 4° C., 30 min) and supernatant of each sample was analyzed for quantification by analytical HPLC (UV absorbance at 342 nm). The amount of each probe was normalized to the peak area of the internal standard. All assays were performed at least three times in technical duplicate, and data shown are representative of the replicates.

[3] = Plasma stability test using pyrene probes, BALB/c mouse plasma; format: in vitro ADME; conditions: 37° C.; for stability in undiluted BALB/c plasma (in words): pyrene probes; for % intact probe, 48 h incubation, Mouse / % intact probe, 96 h incubation, Mouse: undiluted mouse plasma; for % intact probe, 96 h incubation, Mouse: 96 h (4-day)
Procedure: (§2) Plasma stability test using pyrene probes. Each test compound (10 mM in DMSO, 2 μL) was mixed with 1 μL of 1-pyrenemethylamine (10 mM in DMSO, internal standard) and incubated at 37° C. for 10 min. Pooled healthy human plasma, monkey cynomolgus plasma or BALB/c mouse plasma (197 μL, Innovative Research) was added to the mixture, followed by incubation at 37° C. Aliquots (5 μL) were collected at each time point (0, 48, and 96 h for human and monkey cynomolgus plasma; 0, 1, 6, 24, 48, and 96 h for BALB/c mouse plasma) and 25 μL of cold acetonitrile containing 1% formic acid was added to precipitate proteins. The mixture was then kept at −20° C. for 30 min. Precipitated proteins were separated by centrifugation (15,000×g, 4° C., 30 min) and supernatant of each sample was obtained and analyzed for quantification by analytical HPLC as described above. All assays were performed at least three times in technical duplicate, and data shown are representative of the replicates.

human proteinase 3 [4] = target: T2, human proteinase 3 (Homo sapiens, UniProt P24158); experiment: Human neutrophil protease-mediated cleavage assay using pyrene probes: proteinase 3; format: biochemical; conditions: for % intact probe, Proteinase 3: after incubation for 24 h, 37° C., n = 2, mean ± SEM; for resistance to cleavage by human proteinase 3 (in words): pyrene probes
T2 construct: purchased MilliporeSigma
T2 sequence (P24158 28-248): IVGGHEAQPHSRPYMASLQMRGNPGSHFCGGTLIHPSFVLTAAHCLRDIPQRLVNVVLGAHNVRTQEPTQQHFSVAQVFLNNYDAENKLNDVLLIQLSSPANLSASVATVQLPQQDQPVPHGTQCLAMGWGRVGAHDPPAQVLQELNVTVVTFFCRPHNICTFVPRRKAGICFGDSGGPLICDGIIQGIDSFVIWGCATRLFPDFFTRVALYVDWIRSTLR
Procedure: as §1

[5] = Plasma stability test using pyrene probes, human plasma; format: in vitro ADME; conditions: for % intact probe, 48 h incubation, Human / % intact probe, 96 h incubation, Human: undiluted human plasma, 37° C.
Procedure: as §2

[6] = Plasma stability test using pyrene probes, monkey plasma; format: in vitro ADME, cynomolgus monkey; conditions: for % intact probe, 48 h incubation, Monkey / % intact probe, 96 h incubation, Monkey: undiluted monkey plasma, 37° C.
Procedure: as §2

human cathepsin G [7] = target: T3, human cathepsin G (Homo sapiens, UniProt P08311); experiment: Human neutrophil protease-mediated cleavage assay using pyrene probes: cathepsin G; format: biochemical; conditions: for % intact probe, Cathepsin G: after incubation for 24 h, 37° C., n = 2, mean ± SEM
T3 construct: purchased MilliporeSigma
T3 sequence (P08311 21-244): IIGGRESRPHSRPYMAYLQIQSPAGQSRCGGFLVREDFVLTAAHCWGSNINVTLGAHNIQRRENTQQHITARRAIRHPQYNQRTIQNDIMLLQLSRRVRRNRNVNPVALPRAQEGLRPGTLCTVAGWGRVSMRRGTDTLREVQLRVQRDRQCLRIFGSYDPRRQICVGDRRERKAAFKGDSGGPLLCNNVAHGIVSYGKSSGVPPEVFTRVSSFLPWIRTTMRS
Procedure: as §1

monkey cynomolgus plasma = conditions: 37° C., up to 96 h
[8] = Pooled healthy human plasma; conditions: 37° C., up to 96 h
human proteinase 3 [9] = experiment: human proteinase 3 in tris-buffered saline (TBS, pH 7.4); conditions: 37° C., up to 24 h
human cathepsin G [10] = experiment: human cathepsin G in tris-buffered saline (TBS, pH 7.4); conditions: 37° C., up to 24 h

## GCit
[1]
  not cleaved: marginal or almost no degradation

## ELCit
[1]
  not cleaved: marginal or almost no degradation

## VCit-PABC-pyrene
[1]
  cleaved bond: valine-citrulline, major

## Ac-Glu-Ala-Cit-PABC-sar-pyrene [probe 3b]
[2]
  stability against human neutrophil elastase-mediated degradation (in words): complete degradation
[3]
  stability in undiluted BALB/c plasma (in words): improved stability compared to EVCit probe 2

## Ac-Glu-Phe-Cit-PABC-sar-pyrene [S1a]
[2]
  stability against degradation mediated by neutrophil elastase or mouse plasma (in words): instability

## Ac-Glu-Val-(N-Me)Cit-PABC-sar-pyrene [EV(N-Me)Cit 3e]
Human proteinase 3 [4]
  % intact probe, Proteinase 3: 84.4 ± 0.9%
  resistance to cleavage by human proteinase 3 (in words): partially degraded
[5]
  % intact probe, 48 h incubation, Human: 99.5%
  % intact probe, 96 h incubation, Human: 86.4%
[6]
  % intact probe, 48 h incubation, Monkey: 97.8%
  % intact probe, 96 h incubation, Monkey: 91.9%
[2]
  % intact probe, Neutrophil elastase: 99.0 ± 2.4%
  stability against human neutrophil elastase-mediated degradation (in words): marginal or almost no degradation
[3]
  stability in undiluted BALB/c plasma (in words): improved stability compared to EVCit probe 2
  % intact probe, 48 h incubation, Mouse: 37.8%
  % intact probe, 96 h incubation, Mouse: 12.0%
Human cathepsin G [7]
  % intact probe, Cathepsin G: 99.6 ± 0.3%

## Ac-Gly-Cit-PABC-sar-pyrene [probe 3f]
[2]
  stability against human neutrophil elastase-mediated degradation (in words): marginal or almost no degradation
[3]
  stability in undiluted BALB/c plasma (in words): less stable than the EGCit probe 3a

## EGCit
Monkey cynomolgus plasma
  not cleaved: 98.8 ± 1.6 % intact probe after 96 h
[1]
  not cleaved: 99.2 ± 0.3 % intact probe after 24 h
[8]
  not cleaved: 100.3 ± 5.5 % intact probe after 96 h
Human proteinase 3 [9]
  not cleaved: 98.0 ± 1.1 % intact probe after 24 h
Human cathepsin G [10]
  not cleaved: 100.0 ± 1.8 % intact probe after 24 h

## EV(N-Me)Cit-PABC-pyrene
Monkey cynomolgus plasma
  not cleaved: 91.9 ± 1.2 % intact probe after 96 h
[1]
  not cleaved: 99.0 ± 2.4 % intact probe after 24 h
Human cathepsin G [10]
  not cleaved: 99.6 ± 0.3 % intact probe after 24 h

## Ac-Glu-Gly-Cit-PABC-sar-pyrene [EGCit 3a]
Human proteinase 3 [4]
  % intact probe, Proteinase 3: 98.0 ± 1.1%
  resistance to cleavage by human proteinase 3 (in words): completely intact
[5]; pyrene probes
  degradation in human plasma (in words): completely withstood degradation
[5]
  % intact probe, 48 h incubation, Human: 96.5%
  % intact probe, 96 h incubation, Human: 100.3%
[6]; pyrene probes
  degradation in monkey plasma (in words): completely withstood degradation
[6]
  % intact probe, 48 h incubation, Monkey: 98.7%
  % intact probe, 96 h incubation, Monkey: 98.8%
[2]
  % intact probe, Neutrophil elastase: 99.2 ± 0.3%
  stability against human neutrophil elastase-mediated degradation (in words): marginal or almost no degradation
[3]
  stability in undiluted BALB/c plasma (in words): improved stability compared to EVCit probe 2
  % intact probe, 48 h incubation, Mouse: 69.2%
  % intact probe, 96 h incubation, Mouse: 40.3%
[3]; listed as EGCit probe 3a
  % intact probe, 96 h incubation, Mouse: 40%
Human cathepsin G [7]
  % intact probe, Cathepsin G: 100.0 ± 1.8%
Human cathepsin G [7]; pyrene probes
  resistance to cleavage by cathepsin G (in words): completely intact

## EVCit
Monkey cynomolgus plasma
  not cleaved: 95.8 ± 1.8 % intact probe after 96 h
[1]
  cleaved bond: valine-citrulline
[8]
  not cleaved: 91.1 ± 1.1 % intact probe after 96 h

## Ac-Glu-Ile-Cit-PABC-sar-pyrene [probe 3d]
[2]
  stability against human neutrophil elastase-mediated degradation (in words): complete degradation

## Ac-Glu-Leu-Cit-PABC-sar-pyrene [probe 3c]
[2]
  stability against human neutrophil elastase-mediated degradation (in words): marginal or almost no degradation

## Ac-Glu-(N-Me)Val-Cit-PABC-sar-pyrene [S1b]
[2]
  stability against degradation mediated by neutrophil elastase or mouse plasma (in words): instability

## Ac-Val-(N-Me)Cit-PABC-sar-pyrene [S1d]
[2]
  stability against degradation mediated by neutrophil elastase or mouse plasma (in words): instability
